Data reported in patent publication US10670605B2, “Cysteine reactive probes and uses thereof” (The Scripps Research Institute, priority 2015, dated 2020).
Values belong to the molecule of their own block, whether it stands above or below them.

Experiments:
Assay in all cases: Competitive isoTOP-ABPP, cell lysates
Format in all cases: binding
NCF1 C378 (P14598) = target: T1, NCF1 C378 (P14598) (Homo sapiens, UniProt P14598)
T1 sequence (P14598 1-390): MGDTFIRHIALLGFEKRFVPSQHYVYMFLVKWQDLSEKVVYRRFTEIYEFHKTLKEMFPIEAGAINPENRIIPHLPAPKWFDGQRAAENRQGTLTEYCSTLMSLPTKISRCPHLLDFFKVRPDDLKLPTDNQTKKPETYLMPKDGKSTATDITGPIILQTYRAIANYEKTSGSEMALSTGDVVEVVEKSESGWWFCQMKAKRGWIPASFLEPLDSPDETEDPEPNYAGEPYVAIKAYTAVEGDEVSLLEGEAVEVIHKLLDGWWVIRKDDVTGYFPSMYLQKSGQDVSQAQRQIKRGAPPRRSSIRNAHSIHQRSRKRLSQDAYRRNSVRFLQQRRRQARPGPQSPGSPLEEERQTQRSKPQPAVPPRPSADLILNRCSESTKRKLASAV

USP34 C741 (Q70CQ2) = USP34 C741 (Q70CQ2) (Homo sapiens, UniProt Q70CQ2)
USP34 C741 (Q70CQ2), sequence (Q70CQ2 whole entry): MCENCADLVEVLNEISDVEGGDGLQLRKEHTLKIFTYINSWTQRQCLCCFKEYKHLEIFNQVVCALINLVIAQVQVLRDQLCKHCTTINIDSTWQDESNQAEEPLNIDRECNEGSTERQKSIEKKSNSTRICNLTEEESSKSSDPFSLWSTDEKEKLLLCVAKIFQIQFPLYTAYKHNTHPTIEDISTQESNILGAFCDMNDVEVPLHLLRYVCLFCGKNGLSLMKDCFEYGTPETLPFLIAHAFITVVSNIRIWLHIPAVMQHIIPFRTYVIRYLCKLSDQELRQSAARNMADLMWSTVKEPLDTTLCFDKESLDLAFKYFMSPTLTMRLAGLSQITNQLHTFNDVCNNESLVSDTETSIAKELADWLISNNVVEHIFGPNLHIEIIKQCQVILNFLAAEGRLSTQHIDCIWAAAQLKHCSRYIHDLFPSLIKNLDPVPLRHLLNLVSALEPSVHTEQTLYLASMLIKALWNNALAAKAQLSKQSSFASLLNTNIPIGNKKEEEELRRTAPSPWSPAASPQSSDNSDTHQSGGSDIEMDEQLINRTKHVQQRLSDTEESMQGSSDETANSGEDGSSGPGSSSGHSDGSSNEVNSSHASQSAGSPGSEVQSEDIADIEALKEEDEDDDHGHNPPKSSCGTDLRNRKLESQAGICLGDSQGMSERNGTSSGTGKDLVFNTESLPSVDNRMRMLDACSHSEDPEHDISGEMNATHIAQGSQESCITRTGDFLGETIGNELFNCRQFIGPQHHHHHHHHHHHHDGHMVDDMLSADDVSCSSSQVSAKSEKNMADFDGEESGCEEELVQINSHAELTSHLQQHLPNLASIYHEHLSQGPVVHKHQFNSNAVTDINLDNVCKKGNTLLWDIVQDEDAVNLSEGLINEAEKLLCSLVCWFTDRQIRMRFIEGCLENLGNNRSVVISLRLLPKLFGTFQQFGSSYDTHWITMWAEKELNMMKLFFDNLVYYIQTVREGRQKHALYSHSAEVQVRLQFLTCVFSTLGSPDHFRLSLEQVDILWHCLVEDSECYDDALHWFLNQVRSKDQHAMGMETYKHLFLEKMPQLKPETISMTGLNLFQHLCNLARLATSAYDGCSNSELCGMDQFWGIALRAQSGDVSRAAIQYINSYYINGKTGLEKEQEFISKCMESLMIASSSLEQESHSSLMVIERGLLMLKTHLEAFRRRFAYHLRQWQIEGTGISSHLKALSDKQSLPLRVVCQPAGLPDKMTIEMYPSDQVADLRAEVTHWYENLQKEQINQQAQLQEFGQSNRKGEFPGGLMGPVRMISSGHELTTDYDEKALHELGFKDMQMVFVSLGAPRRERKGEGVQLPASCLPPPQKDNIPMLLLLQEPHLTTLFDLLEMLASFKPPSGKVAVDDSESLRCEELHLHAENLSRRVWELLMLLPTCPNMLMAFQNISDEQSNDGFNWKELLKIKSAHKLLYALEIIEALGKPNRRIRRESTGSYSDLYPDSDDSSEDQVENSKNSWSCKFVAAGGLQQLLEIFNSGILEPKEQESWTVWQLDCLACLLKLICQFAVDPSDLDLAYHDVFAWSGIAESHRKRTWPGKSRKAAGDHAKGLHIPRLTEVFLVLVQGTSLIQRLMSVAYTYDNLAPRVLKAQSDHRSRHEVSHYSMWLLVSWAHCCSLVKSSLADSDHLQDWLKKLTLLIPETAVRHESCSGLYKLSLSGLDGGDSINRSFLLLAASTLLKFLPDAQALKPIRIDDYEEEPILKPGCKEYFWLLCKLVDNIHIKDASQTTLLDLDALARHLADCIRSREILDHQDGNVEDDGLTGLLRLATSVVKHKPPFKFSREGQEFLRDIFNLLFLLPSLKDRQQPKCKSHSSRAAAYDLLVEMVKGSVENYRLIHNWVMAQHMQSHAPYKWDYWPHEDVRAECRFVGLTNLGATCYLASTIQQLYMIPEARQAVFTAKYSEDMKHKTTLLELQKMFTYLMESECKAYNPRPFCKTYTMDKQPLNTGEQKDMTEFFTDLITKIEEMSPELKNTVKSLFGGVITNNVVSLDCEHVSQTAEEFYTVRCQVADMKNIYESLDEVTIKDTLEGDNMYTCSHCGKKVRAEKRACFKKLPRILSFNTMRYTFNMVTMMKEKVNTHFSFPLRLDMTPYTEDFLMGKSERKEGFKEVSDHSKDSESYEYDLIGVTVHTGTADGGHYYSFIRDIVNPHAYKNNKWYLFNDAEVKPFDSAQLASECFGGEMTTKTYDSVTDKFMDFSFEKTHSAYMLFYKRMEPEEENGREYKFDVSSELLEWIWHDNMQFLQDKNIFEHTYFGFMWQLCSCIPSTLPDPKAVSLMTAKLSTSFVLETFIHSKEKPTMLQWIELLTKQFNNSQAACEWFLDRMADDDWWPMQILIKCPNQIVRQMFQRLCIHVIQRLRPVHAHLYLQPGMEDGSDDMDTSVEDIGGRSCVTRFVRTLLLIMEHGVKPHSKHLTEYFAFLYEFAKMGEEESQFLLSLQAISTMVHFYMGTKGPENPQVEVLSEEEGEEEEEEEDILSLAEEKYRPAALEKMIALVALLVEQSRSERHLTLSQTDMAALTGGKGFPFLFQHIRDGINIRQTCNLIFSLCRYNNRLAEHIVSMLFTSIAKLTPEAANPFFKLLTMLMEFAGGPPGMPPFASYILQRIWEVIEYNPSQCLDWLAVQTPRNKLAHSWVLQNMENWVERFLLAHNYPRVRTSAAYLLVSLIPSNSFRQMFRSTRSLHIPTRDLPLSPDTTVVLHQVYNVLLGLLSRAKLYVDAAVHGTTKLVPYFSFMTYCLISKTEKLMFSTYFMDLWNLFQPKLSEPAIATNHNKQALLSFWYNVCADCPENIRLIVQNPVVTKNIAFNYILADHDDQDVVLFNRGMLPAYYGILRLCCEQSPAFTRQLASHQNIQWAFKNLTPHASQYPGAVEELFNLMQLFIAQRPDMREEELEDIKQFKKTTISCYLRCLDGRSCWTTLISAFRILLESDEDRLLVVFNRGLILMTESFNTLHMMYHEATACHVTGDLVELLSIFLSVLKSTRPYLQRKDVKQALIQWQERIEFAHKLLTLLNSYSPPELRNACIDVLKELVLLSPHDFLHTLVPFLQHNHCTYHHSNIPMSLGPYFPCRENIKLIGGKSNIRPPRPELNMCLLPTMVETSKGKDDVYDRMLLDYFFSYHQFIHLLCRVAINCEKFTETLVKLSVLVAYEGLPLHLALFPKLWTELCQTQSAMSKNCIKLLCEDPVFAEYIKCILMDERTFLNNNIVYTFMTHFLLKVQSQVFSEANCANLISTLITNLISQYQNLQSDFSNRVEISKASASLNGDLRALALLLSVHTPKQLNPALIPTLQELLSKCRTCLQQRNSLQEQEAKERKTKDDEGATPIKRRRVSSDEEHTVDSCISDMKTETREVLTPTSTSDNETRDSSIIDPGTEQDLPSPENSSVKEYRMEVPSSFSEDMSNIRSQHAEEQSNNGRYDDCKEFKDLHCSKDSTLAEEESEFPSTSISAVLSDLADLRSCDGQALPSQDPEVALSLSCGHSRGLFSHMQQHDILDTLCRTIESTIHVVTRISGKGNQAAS

PELI1 C282 (Q96FA3) = target: T2, PELI1 C282 (Q96FA3) (Homo sapiens, UniProt Q96FA3); details: for isoTOP-ABPP reactivity profile ratio, Q96FA3_C282 / isoTOP-ABPP reactivity ratio, Q96FA3_C282: 500 μm, in-vitro_ramos; for isoTOP-ABPP ratio (reactivity profile), Q96FA3_C282: 500 μm in-vitro ramos
T2 sequence (Q96FA3 1-418): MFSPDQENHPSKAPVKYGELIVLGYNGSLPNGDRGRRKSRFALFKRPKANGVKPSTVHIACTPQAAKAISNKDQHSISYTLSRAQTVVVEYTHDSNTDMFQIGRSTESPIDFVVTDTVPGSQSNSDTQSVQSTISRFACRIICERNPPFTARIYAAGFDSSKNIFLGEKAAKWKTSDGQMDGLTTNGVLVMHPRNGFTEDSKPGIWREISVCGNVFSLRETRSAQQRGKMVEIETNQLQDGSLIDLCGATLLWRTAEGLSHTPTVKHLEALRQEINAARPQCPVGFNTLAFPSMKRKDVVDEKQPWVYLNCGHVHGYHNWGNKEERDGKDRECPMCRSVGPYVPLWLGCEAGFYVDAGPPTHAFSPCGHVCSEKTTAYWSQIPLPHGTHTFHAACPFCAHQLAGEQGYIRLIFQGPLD

SMILES: C=CC(=O)N(c1ccccc1)c1ccc(Br)cc1 [compound 5]
isoTOP-ABPP ratio, P14598_C378 (NCF1 C378 (P14598); 500 μM, invitro, ramos): 4.0

SMILES: O=C(CCl)Nc1cc(C(F)(F)F)cc(C(F)(F)F)c1 [compound 3]
R value (DMSO/fragment) (NCF1 C378 (P14598); 500 μM, invitro, ramos): 2.1 | R value (DMSO/fragment) (USP34 C741 (Q70CQ2); 500 μM, invitro, ramos): 3.2

SMILES: O=C(CCl)NC12CC3CC(CC(C3)C1)C2 [compound 21]
isoTOP-ABPP ratio (reactivity profile), Q70CQ2_C741 (USP34 C741 (Q70CQ2); 500 μm in-vitro ramos): 1.7

SMILES: O=C(CCl)N1CCN(S(=O)(=O)c2ccccc2F)CC1 [compound 10]
isoTOP-ABPP ratio, P14598_C378 (NCF1 C378 (P14598); 500 μM, invitro, ramos): 1.1 | isoTOP-ABPP ratio, Q70CQ2_C741 (USP34 C741 (Q70CQ2); 500 μM, invitro, ramos): 0.9

SMILES: N#CC(=Cc1ccc(-c2ccccc2Cl)o1)C(N)=O [compound 42]
isoTOP-ABPP reactivity profile ratio, Q96FA3_C282 (PELI1 C282 (Q96FA3)): 1.2

SMILES: O=C(CCl)N1CCC(C(O)(c2ccccc2)c2ccccc2)CC1 [compound 20]
isoTOP-ABPP ratio (reactivity profile), Q70CQ2_C741 (USP34 C741 (Q70CQ2); 500 μm in-vitro ramos): 1.7 | isoTOP-ABPP ratio (reactivity profile), Q70CQ2_C741 (USP34 C741 (Q70CQ2); 500 μm in-vitro ramos_231): 2.8

SMILES: C=CC(=O)Nc1cc(F)c(N2CCN(C(=O)OC(C)(C)C)CC2)c(F)c1 [compound 38]
isoTOP-ABPP reactivity ratio, Q96FA3_C282 (PELI1 C282 (Q96FA3)): 7.0 | isoTOP-ABPP reactivity ratio, Q70CQ2_C741 (USP34 C741 (Q70CQ2); 500 μm, in-vitro_ramos): 4.1

SMILES: C=CC(=O)N(Cc1cccnc1)c1cc(C(F)(F)F)cc(C(F)(F)F)c1 [compound 31]
isoTOP-ABPP reactivity ratio, Q70CQ2_C741 (USP34 C741 (Q70CQ2); 500 μm, in-vitro_ramos_231): 4.2

SMILES: C=CC(=O)N1CCC(c2noc3ccc(F)cc23)CC1 [compound 37]
isoTOP-ABPP reactivity ratio, Q70CQ2_C741 (USP34 C741 (Q70CQ2); 500 μm, in-vitro_ramos): 1.1

SMILES: COc1ccc(C2CC(c3cccs3)=NN2C(=O)CCl)cc1 (centres unmarked) [compound 4]
R value (DMSO/fragment) (NCF1 C378 (P14598); 250 μM, in vitro, Ramos): 1.4

SMILES: O=C(/C=C/c1ccccc1)Nc1cc(C(F)(F)F)cc(C(F)(F)F)c1 [compound 26]
isoTOP-ABPP ratio (reactivity profile), Q96FA3_C282 (PELI1 C282 (Q96FA3)): 0.5

Results, then the molecule that gave them:

R value (DMSO/fragment) (NCF1 C378 (P14598); 500 μM, invitro, ramos): 4.4
SMILES: COc1ccc2c(c1)CCCN2C(=O)CCl [compound 2]

isoTOP-ABPP reactivity profile ratio, Q96FA3_C282 (PELI1 C282 (Q96FA3)): 20.0
SMILES: O=C(CCl)Nc1ccc(-c2ccccc2)cc1 [compound 52]

isoTOP-ABPP ratio (reactivity profile), Q96FA3_C282 (PELI1 C282 (Q96FA3)): 0.7
SMILES: COc1ccccc1OCCNC(=O)CCl [compound 28]

isoTOP-ABPP reactivity profile ratio, Q70CQ2_C741 (USP34 C741 (Q70CQ2); 500 μm, in-vitro_ramos): 0.9
SMILES: O=C(CCl)Nc1cccc2ncccc12 [compound 51]

isoTOP-ABPP reactivity profile ratio, P14598_C378 (NCF1 C378 (P14598); 500 μm, in-vitro_ramos): 1.2
SMILES: COc1cc(NC(=O)CCl)cc(OC)c1 [compound 43]

isoTOP-ABPP reactivity ratio, Q96FA3_C282 (PELI1 C282 (Q96FA3)): 1.5
SMILES: CCN(CC)c1ccc(S(N)(=O)=O)cc1NC(=O)CCl [compound 30]

isoTOP-ABPP ratio, P14598_C378 (NCF1 C378 (P14598); 500 μM, invitro, ramos): 0.7 | isoTOP-ABPP ratio, Q70CQ2_C741 (USP34 C741 (Q70CQ2); 500 μM, invitro, 231): 0.8
SMILES: O=C(CCl)NCCc1c[nH]c2ccccc12 [compound 13]
